Laboratory results taken from ChEMBL document CHEMBL1201862, “PubChem BioAssay data set” (2004).
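1) Cells in 96-well plates. 2) Compound, 48 h, 5 concentrations. 3) Linear interpolation between surrounding doses. 4) Unreached endpoint = highest concentration. GI50 marks 50% less growth.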 Active and inactive are the calls of the source. Cut-off read from the data, not from the text of the source: active = GI50 up to about 1.1 µM and inactive = higher.

What was measured:
Experiment in all cases: NCI-60 cell line screen, 48 h
[1] = test system: IGROV-1
[2] = test system: KM12
[3] = test system: UACC-62
[4] = test system: OVCAR-8
[5] = test system: NCI-H522
[6] = test system: HOP-92
[7] = test system: KM-20L2
[8] = test system: LXFL 529
[9] = test system: LOX IMVI
[10] = test system: K562
[11] = test system: TK-10
[12] = test system: SR
[13] = test system: RXF 393
[14] = test system: CAKI-1
[15] = test system: HCT-116
[16] = test system: M14
[17] = test system: OVCAR-3
[18] = test system: NCI-H460
[19] = test system: SW-620
[20] = test system: SK-MEL-28
[21] = test system: CCRF-CEM
[22] = test system: SF-295
[23] = test system: SK-MEL-2
[24] = test system: SK-MEL-5
[25] = test system: ACHN
[26] = test system: RPMI-8226
[27] = test system: Malme-3M
[28] = test system: A549
[29] = test system: MOLT-4
[30] = test system: UO-31
[31] = test system: A498
[32] = test system: SF-539
[33] = test system: OVCAR-4
[34] = test system: DLD-1
[35] = test system: 786-0
[36] = test system: HT-29
[37] = test system: SN12C
[38] = test system: SK-OV-3
[39] = test system: HOP-62
[40] = test system: SF-268
[41] = test system: M19-MEL
[42] = test system: HOP-18
[43] = test system: SNB-75
[44] = test system: HCC 2998
[45] = test system: HL-60
[46] = test system: NCI-H23
[47] = test system: DMS-114
[48] = test system: SNB-19
[49] = test system: DMS-273
[50] = test system: COLO 205
[51] = test system: U-251
[52] = test system: OVCAR-5
[53] = test system: HCT-15
[54] = test system: EKVX
[55] = test system: UACC-257
[56] = test system: NCI-H226
[57] = test system: SNB-78
[58] = test system: XF498

Question: With Nc1nc(SCc2ccccc2Cl)c2ncn(C3OC(CO)C(O)C3O)c2n1 (stereo unspecified) as the molecule, how does the GI50 [1] read?
Answer: > 100 µM (inactive)

Question: What about the GI50 [2] of the same molecule?
Answer: > 100 µM (inactive)

Question: And the GI50 [3]?
Answer: 72.3 µM (inactive)

Question: And the GI50 [4]?
Answer: 89.9 µM (inactive)

Question: What about the GI50 [5] of the same molecule?
Answer: 30.1 µM (inactive)

Question: And the GI50 [6]?
Answer: 98.2 µM (inactive)

Question: And the GI50 [7]?
Answer: > 100 µM (inactive)

Question: What about the GI50 [8] of the same molecule?
Answer: 50.9 µM (inactive)

Question: What about the GI50 [9] of the same molecule?
Answer: 68.9 µM (inactive)

Question: And the GI50 [10]?
Answer: 57 µM (inactive)

Question: And the GI50 [11]?
Answer: > 100 µM (inactive)

Question: And the GI50 [12]?
Answer: 42.7 µM (inactive)

Question: And the GI50 [13]?
Answer: 28.6 µM (inactive)

Question: What about the GI50 [14] of the same molecule?
Answer: > 100 µM (inactive)

Question: What about the GI50 [15] of the same molecule?
Answer: 42.4 µM (inactive)

Question: And the GI50 [16]?
Answer: > 100 µM (inactive)

Question: What about the GI50 [17] of the same molecule?
Answer: 80.4 µM (inactive)

Question: What about the GI50 [18] of the same molecule?
Answer: > 100 µM (inactive)

Question: What about the GI50 [19] of the same molecule?
Answer: > 100 µM (inactive)

Question: And the GI50 [20]?
Answer: 69.2 µM (inactive)

Question: And the GI50 [21]?
Answer: > 100 µM (inactive)

Question: What about the GI50 [22] of the same molecule?
Answer: 59.4 µM (inactive)

Question: What about the GI50 [23] of the same molecule?
Answer: > 100 µM (inactive)

Question: And the GI50 [24]?
Answer: 54.2 µM (inactive)

Question: And the GI50 [25]?
Answer: > 100 µM (inactive)

Question: What about the GI50 [26] of the same molecule?
Answer: 56 µM (inactive)

Question: What about the GI50 [27] of the same molecule?
Answer: > 100 µM (inactive)

Question: And the GI50 [28]?
Answer: 96.6 µM (inactive)

Question: What about the GI50 [29] of the same molecule?
Answer: 49.3 µM (inactive)

Question: What about the GI50 [30] of the same molecule?
Answer: 29.1 µM (inactive)

Question: What about the GI50 [31] of the same molecule?
Answer: 87.3 µM (inactive)

Question: What about the GI50 [32] of the same molecule?
Answer: 89.1 µM (inactive)

Question: What about the GI50 [33] of the same molecule?
Answer: 74.3 µM (inactive)

Question: And the GI50 [34]?
Answer: > 100 µM (inactive)

Question: What about the GI50 [35] of the same molecule?
Answer: > 100 µM (inactive)

Question: What about the GI50 [36] of the same molecule?
Answer: > 100 µM (inactive)

Question: And the GI50 [37]?
Answer: > 100 µM (inactive)

Question: And the GI50 [38]?
Answer: > 100 µM (inactive)

Question: And the GI50 [39]?
Answer: > 100 µM (inactive)

Question: What about the GI50 [40] of the same molecule?
Answer: 80.4 µM (inactive)

Question: What about the GI50 [41] of the same molecule?
Answer: > 100 µM (inactive)

Question: And the GI50 [42]?
Answer: > 100 µM (inactive)

Question: And the GI50 [43]?
Answer: 23.3 µM (inactive)

Question: What about the GI50 [44] of the same molecule?
Answer: > 100 µM (inactive)

Question: What about the GI50 [45] of the same molecule?
Answer: 50.5 µM (inactive)

Question: What about the GI50 [46] of the same molecule?
Answer: > 100 µM (inactive)

Question: And the GI50 [47]?
Answer: 43.5 µM (inactive)

Question: And the GI50 [48]?
Answer: 38.8 µM (inactive)

Question: What about the GI50 [49] of the same molecule?
Answer: 65.6 µM (inactive)

Question: What about the GI50 [50] of the same molecule?
Answer: > 100 µM (inactive)

Question: What about the GI50 [51] of the same molecule?
Answer: > 100 µM (inactive)

Question: And the GI50 [52]?
Answer: > 100 µM (inactive)

Question: What about the GI50 [53] of the same molecule?
Answer: > 100 µM

Question: What does the source list for COc1cc2c(c3c1C=CCO3)C(=O)c1ccccc1C2=O?
Answer: GI50 [1]: 26.8 µM (inactive); GI50 [2]: 30.3 µM (inactive); GI50 [3]: 47.4 µM (inactive); GI50 [4]: 40.8 µM (inactive); GI50 [5]: 29.7 µM (inactive); GI50 [6]: > 100 µM (inactive); GI50 [7]: 59.4 µM (inactive); GI50 [8]: 31.2 µM (inactive); GI50 [9]: 28.6 µM (inactive); GI50 [10]: 32.3 µM (inactive); GI50 [11]: 50.4 µM (inactive); GI50 [12]: 28 µM (inactive); GI50 [13]: > 100 µM (inactive); GI50 [15]: 33.3 µM (inactive); GI50 [16]: 82 µM (inactive); GI50 [17]: 42.8 µM (inactive); GI50 [18]: 39.8 µM (inactive); GI50 [19]: 30.4 µM (inactive); GI50 [20]: > 100 µM (inactive); GI50 [21]: 22 µM (inactive); GI50 [22]: > 100 µM (inactive); GI50 [23]: > 100 µM (inactive); GI50 [24]: 24.7 µM (inactive); GI50 [25]: 34.2 µM (inactive); GI50 [26]: 32.8 µM (inactive); GI50 [54]: > 100 µM (inactive); GI50 [27]: > 100 µM (inactive); GI50 [28]: 38.5 µM (inactive); GI50 [29]: 23.6 µM (inactive); GI50 [30]: 29.5 µM (inactive); GI50 [32]: 36.1 µM (inactive); GI50 [34]: 24.2 µM (inactive); GI50 [35]: 57.7 µM (inactive); GI50 [36]: 70.1 µM (inactive); GI50 [37]: 43.9 µM (inactive); GI50 [38]: > 100 µM (inactive); GI50 [39]: 41.3 µM (inactive); GI50 [40]: 47.6 µM (inactive); GI50 [41]: 76.6 µM (inactive); GI50 [42]: 83.8 µM (inactive); GI50 [43]: 51.1 µM (inactive); GI50 [55]: 25.3 µM (inactive); GI50 [44]: 50.2 µM (inactive); GI50 [45]: 19.3 µM (inactive); GI50 [46]: > 100 µM (inactive); GI50 [47]: 53.1 µM (inactive); GI50 [48]: 45.3 µM (inactive); GI50 [49]: 49.1 µM (inactive); GI50 [56]: 32.2 µM (inactive); GI50 [57]: > 100 µM (inactive); GI50 [50]: 19.6 µM (inactive); GI50 [51]: 30.8 µM (inactive); GI50 [52]: > 100 µM (inactive); GI50 [53]: 29.6 µM

Question: With COC(=O)C(C(=O)C(=O)Nc1ccc([N+](=O)[O-])cc1[N+](=O)[O-])c1nc2ccc(Cl)cc2nc1O (stereo unspecified) as the molecule, how does the GI50 [1] read?
Answer: > 100 µM (inactive)

Question: And the GI50 [2]?
Answer: > 100 µM (inactive)

Question: And the GI50 [3]?
Answer: > 100 µM (inactive)

Question: What about the GI50 [4] of the same molecule?
Answer: > 100 µM (inactive)

Question: And the GI50 [6]?
Answer: > 100 µM (inactive)

Question: What about the GI50 [7] of the same molecule?
Answer: > 100 µM (inactive)

Question: And the GI50 [9]?
Answer: > 100 µM (inactive)

Question: What about the GI50 [10] of the same molecule?
Answer: > 100 µM (inactive)

Question: And the GI50 [11]?
Answer: > 100 µM (inactive)

Question: And the GI50 [13]?
Answer: 30.5 µM (inactive)

Question: What about the GI50 [14] of the same molecule?
Answer: > 100 µM (inactive)

Question: And the GI50 [15]?
Answer: > 100 µM (inactive)

Question: What about the GI50 [16] of the same molecule?
Answer: > 100 µM (inactive)

Question: And the GI50 [17]?
Answer: 66.4 µM (inactive)

Question: And the GI50 [18]?
Answer: > 100 µM (inactive)

Question: What about the GI50 [19] of the same molecule?
Answer: > 100 µM (inactive)

Question: What about the GI50 [20] of the same molecule?
Answer: > 100 µM (inactive)

Question: What about the GI50 [21] of the same molecule?
Answer: > 100 µM (inactive)

Question: What about the GI50 [22] of the same molecule?
Answer: > 100 µM (inactive)

Question: And the GI50 [23]?
Answer: > 100 µM (inactive)

Question: And the GI50 [24]?
Answer: 99.8 µM (inactive)

Question: And the GI50 [25]?
Answer: 65 µM (inactive)

Question: What about the GI50 [26] of the same molecule?
Answer: 89.9 µM (inactive)

Question: And the GI50 [54]?
Answer: 40.8 µM (inactive)

Question: And the GI50 [27]?
Answer: > 100 µM (inactive)

Question: What about the GI50 [28] of the same molecule?
Answer: > 100 µM (inactive)

Question: What about the GI50 [29] of the same molecule?
Answer: 73.1 µM (inactive)

Question: And the GI50 [30]?
Answer: 41.1 µM (inactive)

Question: What about the GI50 [31] of the same molecule?
Answer: 44.2 µM (inactive)

Question: What about the GI50 [32] of the same molecule?
Answer: > 100 µM (inactive)

Question: And the GI50 [33]?
Answer: > 100 µM (inactive)

Question: And the GI50 [34]?
Answer: > 100 µM (inactive)

Question: And the GI50 [35]?
Answer: > 100 µM (inactive)

Question: And the GI50 [36]?
Answer: > 100 µM (inactive)

Question: And the GI50 [37]?
Answer: > 100 µM (inactive)

Question: What about the GI50 [38] of the same molecule?
Answer: > 100 µM (inactive)

Question: What about the GI50 [39] of the same molecule?
Answer: > 100 µM (inactive)

Question: What about the GI50 [40] of the same molecule?
Answer: > 100 µM (inactive)

Question: And the GI50 [41]?
Answer: > 100 µM (inactive)

Question: And the GI50 [42]?
Answer: 59.3 µM (inactive)

Question: And the GI50 [43]?
Answer: 68.2 µM (inactive)

Question: What about the GI50 [55] of the same molecule?
Answer: > 100 µM (inactive)

Question: And the GI50 [44]?
Answer: > 100 µM (inactive)

Question: What about the GI50 [58] of the same molecule?
Answer: > 100 µM (inactive)

Question: And the GI50 [45]?
Answer: > 100 µM (inactive)

Question: What about the GI50 [46] of the same molecule?
Answer: 77.8 µM (inactive)

Question: And the GI50 [47]?
Answer: 72.4 µM (inactive)

Question: And the GI50 [48]?
Answer: > 100 µM (inactive)

Question: What about the GI50 [49] of the same molecule?
Answer: > 100 µM (inactive)

Question: What about the GI50 [56] of the same molecule?
Answer: 79.1 µM (inactive)

Question: And the GI50 [57]?
Answer: > 100 µM (inactive)

Question: And the GI50 [50]?
Answer: > 100 µM (inactive)

Question: And the GI50 [52]?
Answer: > 100 µM (inactive)

Question: And the GI50 [53]?
Answer: > 100 µM
